Test results: US20230061223A1, “USE OF 5-AMINO-2,3-DIHYDRO-1,4-PHTHALAZINEDIONE IN THE INHALATORY TREATMENT OF INFLAMMATORY PULMONARY DISEASES” (MetrioPharm AG, priority 2020, published 2023)
Where two headings read alike, the source gives them in different places.

Experiments:
[1] = test system: cigarette smoke-induced 3-nitrotyrosine formation in the lung parenchyma; details: for 3-nitrotyrosine stained surface area, mean ± SEM: n=5 mice, room air 0.24, smoke alone 3.07
Method: 5-amino-2,3-dihydro-1,4-phthalazinedione sodium salt Form I was tested in an isolated, ventilated and perfused mouse lung system that was stimulated with cigarette smoke.
The isolated, ventilated and perfused mouse lung system (ILU) is an established model for studying acute effects of various conditions and drugs on lung parenchyma and vasculature. It is mainly used for examining effects of hypoxia and for evaluating the efficacy of potential drugs on the hypoxic pulmonary vasoreaction (cf. Weissmann et al. (2006) Proc Natl Acad Sci USA 103: 19093-19098).
C57BL/6J mice (n=25, 5 per group; male/female, 3-6 months, 20-30 g; Charles River GmbH, Sulzfeld, Germany) were anesthetized with a ketamine (100 mg/kg body weight) and xylazine (20 mg/kg body weight) intraperitoneal injection (Ceva Tiergesundheit GmbH, Dusseldorf, Germany) containing heparin (50 I.E. heparin/g body weight; Ratiopharm GmbH, Ulm, Germany). The lungs and the heart were removed from the chest cavity and placed on the ILU system (see FIGS. 1A and 1B). Lungs were ventilated in an isolated chamber using normoxic gas (21% O2, 5% CO2, 74% N2; 150 breaths per minute at the PEEP (positive end-expiratory pressure) of 3 cm H2O) and perfused with a modified Krebs-Henseleit buffer (120.0 mM NaCl, 4.3 mM KCl, 1.1 mM KH2PO4, 2.4 mM CaCl2, 1.3 mM MgCl2, 13.14 mM glucose, 0.25 mM hydroxyethyl starch 200000/0.5, 25.0 mM NaHCO3 adjusted to a constant pH range of […] L-arginine; Serag-Wissner GmbH & Co. KG, Naila, Germany) at a temperature of 37° C. Lung weight, right and left ventricle pressure, as well as ventilatory pressure were monitored and recorded during the whole experimental procedure. After 5-10 minutes, when the lung was properly flushed and all the parameters were stable, 5-amino-2,3-dihydro-1,4-phthalazinedione sodium salt was applied by adding 150 μl of a stock solution to 15 ml of the circulating perfusion buffer. The substance was applied 10 minutes prior to the first cigarette smoke application. Cigarette smoke was applied via trachea while lung is perfused with the buffer containing 5-amino-2,3-dihydro-1,4-phthalazinedione sodium salt. Cigarette smoke was prepared freshly before each application, by burning one cigarette (research cigarettes 3R4F, University of Kentucky, USA) in one minute using normoxic gas at the flow of 11/min and collected in a 11 glass bottle containing 5 g silica gel for removing the moist from the cigarette smoke. 50 ml of the cigarette smoke were taken via a syringe and applied to the lung via trachea (FIG. 1A) in deep breaths (periodic inflation for 3-4 s) over a period of 5 min. The application was done manually while carefully monitoring the inspiratory pressure to avoid damage of the lung. The cigarette smoke application was repeated three times with a 1 hour break in-between.
Five treatment groups (n=5, respectively) were investigated:
C: cigarette smoke+0.5 mM 5-amino-2,3-dihydro-1,4-phthalazinedione sodium salt
D: cigarette smoke+1 mM 5-amino-2,3-dihydro-1,4-phthalazinedione sodium salt
E: cigarette smoke+2 mM 5-amino-2,3-dihydro-1,4-phthalazinedione sodium salt
5-amino-2,3-dihydro-1,4-phthalazinedione sodium salt Form I was dissolved in water for injection (vehicle) at the required concentrations described above. Stock solutions were prepared in water for injection. Further 1:100 dilutions were made with modified Krebs-Henseleit buffer (see above). Stock solutions were stored at −70° C. in appropriate aliquots. The required amount of stock solution was thawed, and the corresponding working solution was prepared for immediate use.
One hour after the third cigarette smoke application lungs were removed from the system and fixed by inflating with formalin solution (via trachea) at the pressure of 12-15 cm H2O for two hours at room temperature. Afterwards the fixed lungs were kept in PBS (phosphate buffer saline, see below) at +4° C. until further dehydration and paraffin embedding.

[2] = aerosol characterisation (MMAD, FPF, FPM) by cascade impactor (Next Generation Impactor) after vibrating mesh nebulization; type: physicochemical; details: for FPF (fine particle fraction, <5 μm) / FPM (fine particle mass, 1 μm to 5 μm) / MMAD: vibrating mesh nebulizer; for FPF (fine particle fraction, <5 μm) / FPM (fine particle mass, 1 μm to 5 μm) / MMAD / released dosage: NGI at 4° C.; for released dosage at the mouthpiece as percentage of the nominal value: 3 min nebulization; for released dosage: at the mouthpiece, M-neb dose+ mesh nebulizer; for time of aerosol release: corresponds to 30 strokes/breaths; for residual amounts in the mouthpiece: mouthpiece SK-211
Method: It is expressly stated that the values and ranges disclosed herein refer to measurements of the MMAD, FPF and FPM by means of a cascade impactor (Next Generation Impactor, NGI) cooled down to 4° C.
The particle size distribution (FPM) and the mass median aerodynamic diameter (MMAD) of an aerosol generated from an aqueous solution containing 5-amino-2,3-dihydro-1,4-phthalazinedione sodium salt was analyzed.
Crystalline polymorph Form I of 5-amino-2,3-dihydro-1,4-phthalazinedione sodium salt was solved in physiological saline solution (double distilled water containing 0.9% NaCl). The final concentration solution was 20 mg/ml 5-amino-2,3-dihydro-1,4-phthalazinedione sodium salt.
The experimental procedure was carried out pursuant to Ph. Eur. 2.9.44 (Preparations for Nebulisation: Characterisation). A cascade impactor (Next Generation Impactor (NGI), Copley Scientific Ltd., Nottingham, UK) was used to determine the respective percentage for each fraction of the nebulized particles. The cascade impactor was cooled to 4° C. for the measurements
The nebulization of this aqueous solution of 5-amino-2,3-dihydro-1,4-phthalazinedione sodium salt was carried out by means of a vibrating mesh nebulizer (M-neb-dose+, NEBU-TEC, Eisenfeld, Germany). The thus generated aerosol was delivered to the cascade impactor by means of a mouthpiece (SK-211, NEBU-TEC, Eisenfeld, Germany).
The nebulization chamber (yellow stamp, 250 μl liquid discharge) was filled. The puff profile configured at the breath simulator was chosen in such a way that a correct simulation of inhalation by means of the nebulizer was ensured. The corresponding time was recorded.
The quantification of nebulized 5-amino-2,3-dihydro-1,4-phthalazinedione sodium salt per cascade was carried out after extraction from the cascade pans (stage 1-8) by means of HPLC with reference to an external standard calibration curve (range 0-200 μg/ml; correlation coefficient: 0.9999).
Single values obtained for each cascade were added. […] MMAD, FPF and FPM were calculated from the obtained values: […]
For comparison, the particle size distribution (FPF and FPM) and the mass median aerodynamic diameter (MMAD) of an aerosol generated from a physiological saline solution containing salbutamol sulfate was analyzed (not part of the invention). The procedure was the same as described in Example 2.
Salbutamol is one of the most widely used substances for acute asthma attacks. It is often administered via metered-dose inhalers. Therefore, a physiological saline solution of salbutamol sulfate was tested in order to determine the particle size distribution. The standard dosage (Albutol Sulfate) of 180 μg (90 μg/spray application, 2 spray applications per inhalation session) was dissolved in physiological saline.
The procedure was the same as described in Example 2.
The standard dosage (Atrovent) of 18 μg/spray application was dissolved in physiological saline.

[3] = 20 mg/ml in physiological saline
[4] = aerosol from physiological saline solution
[5] = standard dosage in physiological saline

Compound | released dosage at the mouthpiece as percentage of the nominal value [2] [%] | FPF (fine particle fraction, <5 μm) [2, 4] [%] | MMAD [2, 4] [μm] | time of aerosol release [2] [min] | residual amounts in the mouthpiece [2] | FPM (fine particle mass, 1 μm to 5 μm) [2, 4] [%] | released dosage [2, 5] [µg] | FPM (fine particle mass, 1 μm to 5 μm) [2, 5] [µg] | other results
Nc1cccc2c(=O)[nH][nH]c(=O)c12.[Na] [5-amino-2,3-dihydro-1,4-phthalazinedione sodium salt] | 95 | 74.3 | 3.1 | 3 | No residual amounts | – | – | – | effect on cigarette smoke induced 3-nitrotyrosine formation (in words) ([1]; 0.5 mM in perfusion buffer): moderate effect; effect on cigarette smoke induced 3-nitrotyrosine formation (in words) ([1]; 1 mM in perfusion buffer): almost completely abolished; effect on cigarette smoke induced 3-nitrotyrosine formation (in words) ([1]; 2 mM in perfusion buffer): almost completely abolished; cigarette smoke-induced 3-nitrotyrosine formation in the lung parenchyma, pre-treatment (in words) ([1]; ILU model, pre-treatment): prevents; 3-nitrotyrosine stained surface area, mean ± SEM ([1]; cigarette smoke + 0.5 mM in perfusion buffer): 2.24 ± 0.28 % area; 3-nitrotyrosine stained surface area, mean ± SEM ([1]; cigarette smoke + 1 mM in perfusion buffer): 0.72 ± 0.26 % area; 3-nitrotyrosine stained surface area, mean ± SEM ([1]; cigarette smoke + 2 mM in perfusion buffer): 0.37 ± 0.13 % area; ROS/RNS levels in cigarette smoke-stimulated mouse lung (in words) ([1]; ex vivo mouse lung, 0.5-2 mM): dose-dependent reduction of ROS/RNS levels down to control levels; FPF (fine particle fraction, <5 μm) [2, 3]: 3.5 mg; FPM (fine particle mass, 1 μm to 5 μm) [2, 3]: 3300 µg; FPM (fine particle mass, 1 μm to 5 μm) ([2]; aerosol from physiological saline solution, sodium salt): 69.0%; released dosage [2, 3]: 4700 µg; FPF in comparison ([2]; versus ipratropium bromide): slightly higher; FPM in comparison ([2]; versus ipratropium bromide): slightly smaller; MMAD in comparison ([2]; versus ipratropium bromide): clearly smaller; FPF in comparison ([2]; versus salbutamol sulfate): slightly higher; FPM in comparison ([2]; versus salbutamol sulfate): in a similar range; MMAD in comparison ([2]; versus salbutamol sulfate): clearly smaller
CC(C)[N+]1(C)[C@@H]2CC[C@H]1CC(OC(=O)C(CO)c1ccccc1)C2.[Br-] (stereo partly drawn) [ipratropium bromide, reference compound] | 86 | – | 3.59 | 3 | No residual amounts | 69.4 | 15 | 10 | –
salbutamol sulfate [reference compound] | 92 | 73.3 | 3.57 | 3 | No residual amounts | 69.1 | 166 | 115 | FPF (fine particle fraction, <5 μm) [2, 5]: 0.122 mg
